Measured values taken from publication PMC11546786, “Designing Analogs of SAAP-148 with Enhanced Antimicrobial and Anti-LPS Activities” (International Journal of Molecular Sciences, 2024).
Ends that are not written are not given here.

Experiments:
[1] = system: Klebsiella pneumonia (1.1736); assay type: cell-based, Klebsiella pneumoniae
Description: The LL-37, SAAP-148 and its analogues peptides were synthesized according to the standard Fmoc procedure. The Fmoc-protected resin and monomers are first treated with a basic solvent (piperidine) to remove the amino protecting groups. The carboxyl group of the next amino acid is activated by an activator. The activated monomer reacts with the free amino group to form a peptide bond. These two steps are repeated in a cycle until the synthesis is complete. After synthesis, the peptide is eluted from the column and purified by reverse-phase semipreparative high-performance liquid chromatography as detailed in Table 1. The peptides were dissolved in PBS to create a 1000 μmol/L stock solution for subsequent use. The purity of the synthetic peptide exceeded 95%. Blood samples from healthy donors were obtained from the Fifth Medical Center of Chinese PLA General Hospital (Beijing, China). Human normal lung epithelial cells (BEAS-2B) and mouse mononuclear macrophages cells (RAW 264.7) were sourced from Beyotime Biotechnology (Beijing, China), along with the Enhanced Cell Counting Kit-8 (CCK-8) and nitric oxide detection kit. RPMI-1640 and DMEM were procured from Merck (Darmstadt, Germany), while FBS was obtained from ExCell Bio (Shanghai, China). LPS-B5 (from E. coli 055:B5) was procured from Invivogen (Toulouse, France). Five bacterial strains, including Escherichia coli (1.8732), Pseudomonas aeruginosa (1.2421), Klebsiella pneumonia (1.1736) as Gram-negative bacteria, and Staphylococcus aureus (1.8721) and Staphylococcus epidermidis (1.4260) as Gram-positive bacteria, were procured from the China General Microbiological Culture Collection Centre (CGMCC) (Beijing, China).
The antibacterial activities of the peptides against […] were evaluated using a modified version of the Clinical Laboratory and Standards Institute (CLSI) broth microdilution method, as previously described. Briefly, the bacteria were cultured in liquid LB medium (comprising 10 g/L tryptone, 5 g/L yeast extract, and 10 g/L NaCl) at 37 °C until reaching mid-log phase. Subsequently, the bacterial concentration was adjusted to 1 × 10^6 colony-forming units (CFU)/mL. The peptides were then diluted serially with phosphate-buffered saline (PBS), followed by the addition of 50 μL of the diluted peptides to 50 μL of the bacterial suspension in a 96-well plate (Corning Inc., Lowell, MA, USA). After incubating at 37 °C for 18 to 20 h, the absorbance of each well was measured using a multi-well microplate reader (SpectraMax M5; Molecular Devices, Sunnyvale, CA, USA) at 600 nm.

E. coli = experiment: Membrane damage, PI staining and flow cytometry; assay type: cell-based, Escherichia coli; settings: 6.25 μM peptide, 30 min
Experimental: Propidium iodide (PI) was utilized as a marker for assessing the structural integrity of cell membranes and the occurrence of cell death. The impact of peptides on BEAS-2B cells, E. coli, and S. aureus was investigated by treating the cells with peptides followed by PI staining and flow cytometry (FACS) analysis to evaluate peptide-induced membrane damage. Table 5 presents the results of PI staining in BEAS-2B cells (1 × 10^6) following treatment with peptides at a concentration of 6.25 μM. […] FACS analysis at a peptide concentration of 6.25 μM was employed to determine the membrane damage caused by peptides in E. coli and S. aureus cells (Table 5).
Peptide-induced membrane damage was evaluated by quantifying the influx of propidium iodide (PI). BEAS-2B cells (1 × 10^6 cells in 50 μL) were exposed to a final concentration of 6.25 μM peptide and incubated at 37 °C for 30 min, followed by PBS washing and re-suspension in PI solution (dissolved in PBS) at a final concentration of 2 μg/mL. Bacteria were cultured to mid-log phase at 37 °C, then diluted to an OD600 of 0.5 in phosphate-buffered saline (PBS). […] The bacteria were harvested and re-suspended in PI solution, with fluorescence signal analysis conducted using flow cytometry (Cytomics FC 500, Beckman Coulter, Indianapolis, IN, USA).

[2] = CD spectra, secondary structure by BeStSel; assay type: physicochemical; settings: 30 μM SDS as printed, 100 μM peptide, 25 °C
Method in brief: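 Far-UV CD spectra (190–250 nm) of peptides at 100 μM in SDS, 0.1 cm cells, 25 °C under nitrogen. Secondary-structure content derived from spectra by BeStSel deconvolution.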

[3] = Reversed-phase HPLC retention time as measure of peptide hydrophobicity; assay type: physicochemical; settings: retention time by reverse-phase HPLC, reflects hydrophobicity difference between analogues
five bacterial strains = experiment: MICs against all five bacterial strains (geometric mean, range); assay type: cell-based; design: unit not given here; settings: geometric mean of MICs against all five bacterial strains
Method in brief: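 Modified CLSI broth microdilution: mid-log bacteria from LB culture were adjusted to 1 × 10^6 CFU/mL and mixed 1:1 with peptide serially diluted in PBS. After 18 to 20 h at 37 °C, growth was read as absorbance at 600 nm.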

Q: With LKRVWKRVFKLKKRYWRQLKKPVR-NH2 [SAAP-7] as the substance, how does the “MIC K. pneumoniae” value [1] read?
A: The value was 100.00 µM.

Q: And the “percentage of PI-positive cells, E. coli” value (E. coli)?
A: The value was 34.9%.

Q: And the Others [2]?
A: Its Others is 3.4%.

Q: And the Turn [2]?
A: Its Turn is 0%.

Q: And the α-Helix [2]?
A: The α-Helix was 48.3%.

Q: And the β-Antiparallel [2]?
A: Its β-Antiparallel is 48.3%.

Q: And the β-Parallel [2]?
A: Its β-Parallel is 0%.

Q: What about the “Rt” value [3] of the same substance?
A: Its value is 12.897 min.

Q: And the “MIC (GM)” value (five bacterial strains)?
A: The value was 16.49.
